Measured values taken from PubChem BioAssay AID1963852 (Molecular Pharmacology Branch, DTP, NCI, 2024).
pIC50: −log10 of the molar value.

Test system: 282377-053-R-J1-PDC complex spheroid viability
Experiment: Anticancer human tumor 282377-053-R-J1-PDC patient-derived colon adenocarcinoma cell line growth inhibition [POLQ]
Details: for pIC50: curve of first compound; for viability, T/C: stronger effect = lower value
Procedure, shortened: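 Patient-derived tumour cells were co-cultured with HUVEC and mesenchymal stem cells as multicellular spheroids at 37 °C. They were treated with POLQ inhibitors (novobiocin, ART-558, RP6685) alone or combined with other agents. Top concentrations were at or near clinical Cmax (otherwise 10 microM; SN-38 at 1 microM), decreasing in half-log steps.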

[1] = second compound 0.0316 µM, first compound 0.0316 µM
[2] = second compound 0.0316 µM, first compound 0.1 µM
[3] = second compound 0.1 µM, first compound 0.0316 µM
[4] = second compound 0.1 µM, first compound 0.1 µM
[5] = second compound 0.316 µM, first compound 0.0316 µM
[6] = second compound 0.316 µM, first compound 0.1 µM
[7] = second compound 1 µM, first compound 0.0316 µM
[8] = second compound 1 µM, first compound 0.1 µM
[9] = second compound 3.16 µM, first compound 0.0316 µM
[10] = second compound 3.16 µM, first compound 0.1 µM
[11] = second compound 10 µM, first compound 0.0316 µM
[12] = second compound 10 µM, first compound 0.1 µM
[13] = second compound 0.0316 µM, first compound 0.316 µM
[14] = second compound 0.0316 µM, first compound 1 µM
[15] = second compound 0.0316 µM, first compound 3.16 µM
[16] = second compound 0.0316 µM, first compound 10 µM
[17] = second compound 0.1 µM, first compound 0.316 µM
[18] = second compound 0.1 µM, first compound 1 µM
[19] = second compound 0.1 µM, first compound 3.16 µM
[20] = second compound 0.1 µM, first compound 10 µM
[21] = second compound 0.316 µM, first compound 0.316 µM
[22] = second compound 0.316 µM, first compound 1 µM
[23] = second compound 0.316 µM, first compound 3.16 µM
[24] = second compound 0.316 µM, first compound 10 µM
[25] = second compound 1 µM, first compound 0.316 µM
[26] = second compound 1 µM, first compound 1 µM
[27] = second compound 1 µM, first compound 3.16 µM
[28] = second compound 1 µM, first compound 10 µM
[29] = second compound 3.16 µM, first compound 0.316 µM
[30] = second compound 3.16 µM, first compound 1 µM
[31] = second compound 3.16 µM, first compound 3.16 µM
[32] = second compound 3.16 µM, first compound 10 µM
[33] = second compound 10 µM, first compound 0.316 µM
[34] = second compound 10 µM, first compound 1 µM
[35] = second compound 10 µM, first compound 3.16 µM
[36] = second compound 10 µM, first compound 10 µM
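Note: spheroids exposed to compounds for seven days.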
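Throughout, for viability, T/C: 100% = DMSO vehicle control viability.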

`CC[C@@]1(O)C(=O)OCc2c1cc1n(c2=O)Cc2cc3c(CN(C)C)c(O)ccc3nc2-1` + Cc1cccc(N(C)C(=O)C2C(O)CCN2c2nc(C)cc(C(F)(F)F)c2C#N)c1 was tested, and the pIC50 (second compound 0.0316 µM) was under 7.00, the pIC50 (second compound 0.1 µM) was under 7.00 and the pIC50 (second compound 0.316 µM) was under 7.00. It also gave a pIC50 (second compound 1 µM) of under 7.00, a pIC50 (second compound 3.16 µM) of under 7.00 and a pIC50 (second compound 10 µM) of under 7.00. The viability, T/C (second compound 0.0316 µM, first compound 0.000316 µM) was 97.1%, the viability, T/C (second compound 0.0316 µM, first compound 0.001 µM) was 107% and the viability, T/C (second compound 0.0316 µM, first compound 0.00316 µM) was 118%. For the same molecule, the viability, T/C (second compound 0.0316 µM, first compound 0.01 µM) was 111%, the viability, T/C [1] was 94.4% and the viability, T/C [2] was 76.1%. The viability, T/C (second compound 0.1 µM, first compound 0.000316 µM) was 98.3%, the viability, T/C (second compound 0.1 µM, first compound 0.001 µM) was 108% and the viability, T/C (second compound 0.1 µM, first compound 0.00316 µM) was 86.1%. For the same molecule, the viability, T/C (second compound 0.1 µM, first compound 0.01 µM) was 109%, the viability, T/C [3] was 87.6% and the viability, T/C [4] was 88%. It also gave a viability, T/C (second compound 0.316 µM, first compound 0.000316 µM) of 90.6%, a viability, T/C (second compound 0.316 µM, first compound 0.001 µM) of 97.8% and a viability, T/C (second compound 0.316 µM, first compound 0.00316 µM) of 101%. For the same molecule, the viability, T/C (second compound 0.316 µM, first compound 0.01 µM) was 105%, the viability, T/C [5] was 107% and the viability, T/C [6] was 77.2%. It also gave a viability, T/C (second compound 1 µM, first compound 0.000316 µM) of 93%, a viability, T/C (second compound 1 µM, first compound 0.001 µM) of 92.6% and a viability, T/C (second compound 1 µM, first compound 0.00316 µM) of 124%. For the same molecule, the viability, T/C (second compound 1 µM, first compound 0.01 µM) was 105%, the viability, T/C [7] was 124% and the viability, T/C [8] was 71.9%. For the same molecule, the viability, T/C (second compound 3.16 µM, first compound 0.000316 µM) was 97.5%, the viability, T/C (second compound 3.16 µM, first compound 0.001 µM) was 102% and the viability, T/C (second compound 3.16 µM, first compound 0.00316 µM) was 98.5%. For the same molecule, the viability, T/C (second compound 3.16 µM, first compound 0.01 µM) was 94.6%, the viability, T/C [9] was 101% and the viability, T/C [10] was 71%. It also gave a viability, T/C (second compound 10 µM, first compound 0.000316 µM) of 87.5%, a viability, T/C (second compound 10 µM, first compound 0.001 µM) of 93.9% and a viability, T/C (second compound 10 µM, first compound 0.00316 µM) of 92.3%. For the same molecule, the viability, T/C (second compound 10 µM, first compound 0.01 µM) was 81.2%, the viability, T/C [11] was 96.2% and the viability, T/C [12] was 65.2%.
In the case of `COc1cc(C2c3cc4c(cc3C(OC3OC5COC(C)OC5C(O)C3O)C3COC(=O)C23)OCO4)cc(OC)c1O` (stereo not drawn) + Cc1cccc(N(C)C(=O)C2C(O)CCN2c2nc(C)cc(C(F)(F)F)c2C#N)c1, the pIC50 (second compound 0.0316 µM) was under 5.00, the pIC50 (second compound 0.1 µM) was under 5.00 and the pIC50 (second compound 0.316 µM) was under 5.00. It also gave a pIC50 (second compound 1 µM) of under 5.00, a pIC50 (second compound 3.16 µM) of under 5.00 and a pIC50 (second compound 10 µM) of 5.12. The viability, T/C [1] was 139%, the viability, T/C [2] was 104% and the viability, T/C [13] was 128%. For the same molecule, the viability, T/C [14] was 109%, the viability, T/C [15] was 84.8% and the viability, T/C [16] was 61.4%. It also gave a viability, T/C [3] of 112%, a viability, T/C [4] of 105% and a viability, T/C [17] of 123%. The viability, T/C [18] was 88.7%, the viability, T/C [19] was 89.1% and the viability, T/C [20] was 59.1%. It also gave a viability, T/C [5] of 108%, a viability, T/C [6] of 98.2% and a viability, T/C [21] of 119%. The viability, T/C [22] was 116%, the viability, T/C [23] was 91% and the viability, T/C [24] was 64.2%. The viability, T/C [7] was 107%, the viability, T/C [8] was 99% and the viability, T/C [25] was 123%. The viability, T/C [26] was 98.1%, the viability, T/C [27] was 78.7% and the viability, T/C [28] was 56.9%. The viability, T/C [9] was 103%, the viability, T/C [10] was 102% and the viability, T/C [29] was 96.2%. For the same molecule, the viability, T/C [30] was 90.1%, the viability, T/C [31] was 86.2% and the viability, T/C [32] was 53.9%. For the same molecule, the viability, T/C [11] was 103%, the viability, T/C [12] was 100% and the viability, T/C [33] was 96.5%. It also gave a viability, T/C [34] of 78.2%, a viability, T/C [35] of 62.1% and a viability, T/C [36] of 46%.
`COc1cccc2c1C(=O)c1c(O)c3c(c(O)c1C2=O)CC(O)(C(=O)CO)CC3OC1CC(N)C(O)C(C)O1` (stereo not drawn) + Cc1cccc(N(C)C(=O)C2C(O)CCN2c2nc(C)cc(C(F)(F)F)c2C#N)c1 showed a pIC50 (second compound 0.0316 µM) of 6.32, a pIC50 (second compound 0.1 µM) of 6.25 and a pIC50 (second compound 0.316 µM) of 6.34. For the same molecule, the pIC50 (second compound 1 µM) was 6.43, the pIC50 (second compound 3.16 µM) was 6.31 and the pIC50 (second compound 10 µM) was 6.46. The viability, T/C [1] was 130%, the viability, T/C [2] was 105% and the viability, T/C [13] was 63.7%. For the same molecule, the viability, T/C [14] was 27.6%, the viability, T/C [15] was 1.27% and the viability, T/C [16] was 3.44%. For the same molecule, the viability, T/C [3] was 108%, the viability, T/C [4] was 98.5% and the viability, T/C [17] was 79.6%. For the same molecule, the viability, T/C [18] was 20.7%, the viability, T/C [19] was 1.4% and the viability, T/C [20] was 2.79%. It also gave a viability, T/C [5] of 104%, a viability, T/C [6] of 100% and a viability, T/C [21] of 66.1%. The viability, T/C [22] was 16.1%, the viability, T/C [23] was 0.98% and the viability, T/C [24] was 3.12%. The viability, T/C [7] was 113%, the viability, T/C [8] was 101% and the viability, T/C [25] was 47%. It also gave a viability, T/C [26] of 29.9%, a viability, T/C [27] of 2.19% and a viability, T/C [28] of 2.83%. For the same molecule, the viability, T/C [9] was 115%, the viability, T/C [10] was 91.7% and the viability, T/C [29] was 73.3%. For the same molecule, the viability, T/C [30] was 15.2%, the viability, T/C [31] was 1% and the viability, T/C [32] was 2.98%. It also gave a viability, T/C [11] of 95%, a viability, T/C [12] of 89.8% and a viability, T/C [33] of 54%. For the same molecule, the viability, T/C [34] was 9.01%, the viability, T/C [35] was 0.71% and the viability, T/C [36] was 2.73%.
With `Nc1ccn(C2OC(CO)C(O)C2(F)F)c(=O)n1` (stereo not drawn) + Cc1cccc(N(C)C(=O)C2C(O)CCN2c2nc(C)cc(C(F)(F)F)c2C#N)c1 the pIC50 (second compound 0.0316 µM) was 7.01, the pIC50 (second compound 0.1 µM) was 7.02 and the pIC50 (second compound 0.316 µM) was 7.02. The pIC50 (second compound 1 µM) was 7.00, the pIC50 (second compound 3.16 µM) was 6.94 and the pIC50 (second compound 10 µM) was 6.95. For the same molecule, the viability, T/C [1] was 84%, the viability, T/C [2] was 45.3% and the viability, T/C [13] was 35.2%. The viability, T/C [14] was 23.9%, the viability, T/C [15] was 17.8% and the viability, T/C [16] was 13.6%. For the same molecule, the viability, T/C [3] was 101%, the viability, T/C [4] was 46.8% and the viability, T/C [17] was 30.3%. It also gave a viability, T/C [18] of 23.1%, a viability, T/C [19] of 23.2% and a viability, T/C [20] of 16%. For the same molecule, the viability, T/C [5] was 81.7%, the viability, T/C [6] was 47% and the viability, T/C [21] was 31.9%. It also gave a viability, T/C [22] of 25.9%, a viability, T/C [23] of 18.2% and a viability, T/C [24] of 16.6%. It also gave a viability, T/C [7] of 84.5%, a viability, T/C [8] of 45.5% and a viability, T/C [25] of 32.7%. It also gave a viability, T/C [26] of 30.4%, a viability, T/C [27] of 21.7% and a viability, T/C [28] of 10.5%. The viability, T/C [9] was 92.5%, the viability, T/C [10] was 50.9% and the viability, T/C [29] was 31.8%. For the same molecule, the viability, T/C [30] was 30.2%, the viability, T/C [31] was 24.6% and the viability, T/C [32] was 13.9%. It also gave a viability, T/C [11] of 74.9%, a viability, T/C [12] of 48.6% and a viability, T/C [33] of 38.2%. For the same molecule, the viability, T/C [34] was 25%, the viability, T/C [35] was 20.8% and the viability, T/C [36] was 12.3%.
